Assay results as given in patent publication US12138320B2, “Composition and methods for tumor imaging and treatment” (The University of Chicago, priority 2020, dated 2024).

Test system: other detected serine hydrolase targets
Assay: Family-wide gel-based profiling of serine hydrolases in MDA-MB231 and PC3 cells (selectivity)
Assay type: cell-based, human
Settings: live cells
Protocol: Proteome Preparation: Human PC3 and MDA-MB231 cells were grown in Roswell Park Memorial Institute (RPMI) medium and Dulbecco's Modified Eagle Medium (DMEM), respectively, supplemented with 10% fetal bovine serum (FBS) and 2 mM L-glutamine, and cultured in a humidified 5% CO2 incubator at 37° C. Cells were washed twice with phosphate buffered saline (PBS, pH 7.5), collected by scraping, resuspended in 0.2 ml PBS, sonicated, and fractionated via centrifugation (100,000×g, 45 min) into a pellet (containing membrane proteins) and supernatant (containing soluble proteins). […] Protein concentrations were determined using a Bradford protein assay kit (Bio-Rad, Hercules, California, United States of America)). […]
Gel-based Activity Profiling: Cell lysates were treated with 1 μM fluorophosphonate-rhodamine (FP-rho) for 30 min at room temperature (50 μL total reaction volume). Reactions were quenched with one volume of standard 4× sodium dodecyl sulfate/polyacrylamide gel electrophoresis (SDS/PAGE) reducing sample buffer, resolved on 10% acrylamide SDS/PAGE gels, and visualized in-gel with a fluorescence scanner sold under the tradename CHEMIDOC™ MP (Bio-Rad, Hercules, California, United States of America). Densitometric quantification of band intensities were used to calculate the percent inhibition via JW199. […]

With CC(C)c1ccccc1OC(=O)NCCc1ccc(OCC[18F])cc1 [[^18F]JW199, fluorine-18-labeled 2-isopropylphenyl-(4-(2-fluoroethoxy)phenethyl)carbamate] the “selectivity over other detected serine hydrolase targets” value was “greater than 1,000 fold”.
